Data set [1] can be described thus: Cytotoxicity in mock-infected HEL cells (MTS). Format: cell-based, human. Conditions: human.
The test system of the next data set is HCoV-229E. Kind of data set: CPE reduction assay, HCoV-229E in HEL cells. It counts as cell-based. Conditions: Human coronavirus 229E, MTS, mean of 2–3 tests.
A further data set deals with S. haemolyticus. In words: MIC, broth microdilution. Format: cell-based. Conditions: Staphylococcus haemolyticus. From the text: (§1) We determined the minimal inhibitory concentrations (MIC) of the teicoplanin conjugates for a large panel of Gram-positive bacterial strains, using vancomycin, unmodified teicoplanin, dalbavancin and oritavancin as reference compounds. […] The bacterial strains (see Suppl. Table S5 for all details) were selected to achieve maximum diversity of multidrug-resistance and include strains with known mechanisms of resistance to glycopeptides in clinical use. The S. epidermidis and S. haemolyticus strains resistant to dalbavancin and oritavancin were obtained in vitro from clinical isolates sensitive to the glycopeptide antibiotics.
Background: In broth dilution the organism is exposed to a series of concentrations in liquid medium.

For a further data set, the system named is S.pyogenes. In words: MIC, broth microdilution. It counts as cell-based. To be noted: Streptococcus pyogenes.
Text: as §1

In the next data set the test system is S. aureus. Kind of data set: MIC, broth microdilution. It counts as cell-based. Conditions: Staphylococcus aureus.
Text: as §1

The next data set has as its system E. faecalis. Kind of data set: MIC, broth microdilution. Format: cell-based. To be noted: Enterococcus faecalis.
Text: as §1

The subject of the next data set is E. faecium. Kind of data set: microbe, parasite or virus in culture. Format: cell-based. Conditions: Enterococcus faecium.
Text: as §1

A further data set has as its system S. epidermidis. In words: microbe, parasite or virus in culture. To be noted: Staphylococcus epidermidis. It counts as cell-based.
Text: as §1

The subject of the next data set is S. aureus ATCC29213. In words: Fluorescent competition assay, release of fluorescent vancomycin. To be noted: cells saturated with FL-VAN, Fig. 7 left panel.
The subject of data set [2] is SARS-CoV-2. Kind of data set: microbe, parasite or virus in culture. Conditions: Severe acute respiratory syndrome coronavirus 2, 72 h; Calu-3 cells, three days, XTT; read-out: EC50, CPE reduction, SARS-CoV-2 in Calu-3 cells. It counts as cell-based. In general terms: Tetrazolium dyes change colour on reduction, which living cells bring about.
Data set [3] relates to SARS-CoV-2. In words: microbe, parasite or virus in culture. It counts as cell-based. To be noted: Severe acute respiratory syndrome coronavirus 2, Vero C1008, 72 h; Vero E6 cells, three days, XTT; read-out: EC50, CPE reduction, SARS-CoV-2 in Vero E6 cells.
Data set [4] can be described thus: Cytotoxicity in mock-infected VeroE6 cells (XTT). It counts as cell-based, African green monkey. To be noted: African green monkey; mock-infected Vero E6 cells, three days, XTT.
The next data set in a line: in vitro. To be noted: human.

The results in this text go back to paper PMC9511441, “Semisynthetic teicoplanin derivatives with dual antimicrobial activity against SARS-CoV-2 and multiresistant bacteria” (Scientific Reports, 2022).

What is called EC50 is the concentration at which the effect is half-maximal.

Values after ≈ are worked out from the molar mass of the structure shown. Where two headings read alike, the source gives them in different places. Bounds are passed on as bounds.

In the case of `N#C[C@@]1(c2ccc3c(N)ncnn23)O[C@H](CO)[C@@H](O)[C@H]1O` [GS-441524, reference compound], the CC50 at 5 days in data set [1] is above 40000 nM. Also, a half-maximal response in the data set on HCoV-229E (EC50) required 3000 nM.

Turning to `CN[C@H](CC(C)C)C(=O)N[C@H]1C(=O)N[C@@H](CC(N)=O)C(=O)N[C@H]2C(=O)N[C@H]3C(=O)N[C@H](C(=O)N[C@H](C(=O)O)c4cc(O)cc(O)c4-c4cc3ccc4O)[C@H](O[C@H]3C[C@](C)(N)[C@@H](O)[C@H](C)O3)c3ccc(c(Cl)c3)Oc3cc2cc(c3O[C@@H]2O[C@H](CO)[C@@H](O)[C@H](O)[C@H]2O[C@H]2C[C@](C)(NCc3ccc(-c4ccc(Cl)cc4)cc3)[C@@H](O)[C@H](C)O2)Oc2ccc(cc2Cl)[C@H]1O` [ORI, oritavancin, reference compound], the MIC with S. haemolyticus (S. haemolyticus mecA, 6 strains, read-out: Average MIC value) is 0.24 µg/mL (≈ 0.134 µM); with S. haemolyticus (S.haemolyticus DALB_R1, mecA, read-out: MIC value), 0.25 µg/mL (≈ 0.139 µM); with S. haemolyticus (S.haemolyticus DALB_R2, mecA, read-out: MIC value) it was 0.25 µg/mL (≈ 0.139 µM); with S. haemolyticus (S.haemolyticus DALB_R3, mecA, read-out: MIC value), 0.25 µg/mL (≈ 0.139 µM); with S. haemolyticus (S.haemolyticus DALB_R4, mecA, read-out: MIC value) it was 0.0625 µg/mL (≈ 0.0349 µM); in the data set on S. haemolyticus (S.haemolyticus DALB_R5, mecA, read-out: MIC value) it was 0.125 µg/mL (≈ 0.0697 µM). The MIC in the data set on S. haemolyticus (S.haemolyticus ORI_R1, mecA, read-out: MIC value) came to 0.5 µg/mL (≈ 0.279 µM); in the data set on S.pyogenes (read-out: MIC value, S.pyogenes H232), 0.125 µg/mL (≈ 0.0697 µM); in the data set on S.pyogenes (read-out: MIC value, S.pyogenes H550) it was 0.0625 µg/mL (≈ 0.0349 µM); in the data set on S.pyogenes (read-out: MIC value, S.pyogenes H578) it was 0.0625 µg/mL (≈ 0.0349 µM); with S. aureus (ATCC 29213 / MSSA, read-out: MIC value, S. aureus ATCC29213, MSSA) it was 0.125 µg/mL (≈ 0.0697 µM); with S. aureus (MRSA / USA300, read-out: MIC value, S. aureus USA300, CA-MRSA), 0.0625 µg/mL (≈ 0.0349 µM). Besides, the MIC turned out to be 0.0625 µg/mL (≈ 0.0349 µM) in the data set on S. aureus (MRSA, read-out: Average MIC value, S. aureus CA-MRSA, 1 strain); 0.14 µg/mL (≈ 0.0781 µM) in the data set with S. aureus (MRSA, read-out: Average MIC value, S. aureus MRSA, 7 strains); 0.125 µg/mL (≈ 0.0697 µM) in the data set on S. aureus (MRSA, read-out: MIC value, S. aureus 73OL, MRSA); 0.125 µg/mL (≈ 0.0697 µM) in the data set with S. aureus (MRSA, read-out: MIC value, S. aureus 214OL, MRSA); 0.125 µg/mL (≈ 0.0697 µM) with S. aureus (MRSA, read-out: MIC value, S. aureus 1041OL, MRSA); 0.125 µg/mL (≈ 0.0697 µM) with S. aureus (MRSA, read-out: MIC value, S. aureus A6918, MRSA). Also, the MIC in the data set with S. aureus (MRSA, read-out: MIC value, S. aureus A6919, MRSA) worked out at 0.125 µg/mL (≈ 0.0697 µM); in the data set with S. aureus (MRSA, read-out: MIC value, S. aureus Mu50, MRSA) it was 0.25 µg/mL (≈ 0.139 µM); in the data set with S. aureus (MRSA, read-out: MIC value, S. aureus N315, MRSA) it was 0.125 µg/mL (≈ 0.0697 µM); in the data set on S. aureus (MSSA / NEWMAN, read-out: MIC value, S. aureus Newman, MSSA) it was 0.0625 µg/mL (≈ 0.0349 µM); in the data set on S. aureus (MSSA, read-out: Average MIC value, S. aureus MSSA, 4 strains), 0.078 µg/mL (≈ 0.0435 µM); in the data set with S. aureus (MSSA, read-out: MIC value, S. aureus MSSA476, MSSA) it was 0.0625 µg/mL (≈ 0.0349 µM). Moreover, the MIC in the data set with S. aureus (MSSA, read-out: MIC value, S. aureus SA564, MSSA) is 0.0625 µg/mL (≈ 0.0349 µM); in the data set on E. faecalis (read-out: Average MIC value, E. faecalis VAN^R,TEI^R/VanA, 1 strain), 0.125 µg/mL (≈ 0.0697 µM); with E. faecalis (read-out: Average MIC value, E. faecalis VAN^S, TEI^S, 2 strains) it was 0.0625 µg/mL (≈ 0.0349 µM); with E. faecalis (read-out: MIC value, E.faecalis JH2-2) it was 0.0625 µg/mL (≈ 0.0349 µM); in the data set on E. faecalis (read-out: MIC value, E.faecalis OG1RF), 0.0625 µg/mL (≈ 0.0349 µM); in the data set with E. faecalis (read-out: MIC value, E.faecalis V583, VAN,TEI/VanA) it was 0.125 µg/mL (≈ 0.0697 µM). The MIC in the data set on E. faecium (read-out: Average MIC value, E. faecium VAN^R,TEI^R/VanA, 8 strains) turned out to be 0.12 µg/mL (≈ 0.0669 µM); with E. faecium (read-out: Average MIC value, E. faecium VAN^S, TEI^S, 1 strain) it was 0.0625 µg/mL (≈ 0.0349 µM); in the data set with E. faecium (read-out: MIC value, E.faecium E335, VAN,TEI,LNZ/VanA), 0.125 µg/mL (≈ 0.0697 µM); with E. faecium (read-out: MIC value, E.faecium E355, VAN,TEI,LNZ/VanA), 0.0625 µg/mL (≈ 0.0349 µM); with E. faecium (read-out: MIC value, E.faecium E832, VAN,TEI,LNZ/VanA), 0.125 µg/mL (≈ 0.0697 µM); with E. faecium (read-out: MIC value, E.faecium E854, VAN,TEI,LNZ/VanA), 0.0625 µg/mL (≈ 0.0349 µM). The MIC in the data set on E. faecium (read-out: MIC value, E.faecium E859, VAN,TEI,LNZ/VanA) came to 0.0625 µg/mL (≈ 0.0349 µM); in the data set on E. faecium (read-out: MIC value, E.faecium E1114, VAN,TEI,LNZ/VanA), 0.25 µg/mL (≈ 0.139 µM); in the data set with E. faecium (read-out: MIC value, E.faecium E1131, VAN,TEI,LNZ/VanA), 0.125 µg/mL (≈ 0.0697 µM); in the data set with E. faecium (read-out: MIC value, E.faecium E1132, VAN,TEI,LNZ/VanA), 0.125 µg/mL (≈ 0.0697 µM); in the data set on E. faecium (read-out: MIC value, E.faecium TX0016), 0.0625 µg/mL (≈ 0.0349 µM); with S. epidermidis (read-out: Average MIC value, S. epidermidis mecA, 6 strains) it was 1.2 µg/mL (≈ 0.669 µM). Further, the MIC in the data set with S. epidermidis (read-out: MIC value, S.epidermidis ORI_R1, mecA) is 4 µg/mL (≈ 2.23 µM); in the data set with S. epidermidis (read-out: MIC value, S.epidermidis ORI_R2, mecA) it was 0.5 µg/mL (≈ 0.279 µM); in the data set on S. epidermidis (read-out: MIC value, S.epidermidis ORI_R3, mecA) it was 2 µg/mL (≈ 1.12 µM); in the data set with S. epidermidis (read-out: MIC value, S.epidermidis ORI_R4, mecA), 0.5 µg/mL (≈ 0.279 µM); in the data set on S. epidermidis (read-out: MIC value, S.epidermidis TEI_R1, mecA) it was 0.125 µg/mL (≈ 0.0697 µM); in the data set with S. epidermidis (read-out: MIC value, S.epidermidis TEI_R2, mecA), 0.125 µg/mL (≈ 0.0697 µM). For the same compound, the “Outcompeting fluorescent vancomycin from S. aureus (in words)” value with S. aureus ATCC29213 is reported as “less pronounced”.

As to `CCC(CC)COC(=O)[C@H](C)N[P@](=O)(OC[C@H]1O[C@@](C#N)(c2ccc3c(N)ncnn23)[C@H](O)[C@@H]1O)Oc1ccccc1` [Remdesivir, remdesivir, reference compound], the EC50 in the data set on SARS-CoV-2 [2] amounted to 300 ± 30 nM; in the data set on SARS-CoV-2 [3], 2500 ± 200 nM. Also, the CC50 was above 100000 nM in data set [4] and above 50000 nM in the data set “in vitro”.
